Results on 27 compounds are retold here after ChEMBL document CHEMBL2163248, “Classification of inhibitors of hepatic organic anion transporting polypeptides (OATPs): influence of protein expression on drug-drug interactions” (J Med Chem, 2012).

*1 amine or outer side, *2 acyl side, *3 side chain or, on linkers, in order; H or OH if unused. Where a SMILES comes first, the peptide text is derived from it. Bridges are numbered along the chain shown (N, C = ends). [ ]: non-standard residue; d: D form. Trp(2-yl) = O=C([C@H](Cc1c([*:3])[nH]c2ccccc12)N[*:1])[*:2]; Leu(4R-OH,5-OH) = C[C@](O)(CO)C[C@H](N)C(=O)O; cisHyp = O=C(O)[C@@H]1C[C@H](O)CN1

The target of data set [1] is T1, Solute carrier organic anion transporter family member 1B1 (Homo sapiens, UniProt Q9Y6L6).
T1 sequence (Q9Y6L6 whole entry): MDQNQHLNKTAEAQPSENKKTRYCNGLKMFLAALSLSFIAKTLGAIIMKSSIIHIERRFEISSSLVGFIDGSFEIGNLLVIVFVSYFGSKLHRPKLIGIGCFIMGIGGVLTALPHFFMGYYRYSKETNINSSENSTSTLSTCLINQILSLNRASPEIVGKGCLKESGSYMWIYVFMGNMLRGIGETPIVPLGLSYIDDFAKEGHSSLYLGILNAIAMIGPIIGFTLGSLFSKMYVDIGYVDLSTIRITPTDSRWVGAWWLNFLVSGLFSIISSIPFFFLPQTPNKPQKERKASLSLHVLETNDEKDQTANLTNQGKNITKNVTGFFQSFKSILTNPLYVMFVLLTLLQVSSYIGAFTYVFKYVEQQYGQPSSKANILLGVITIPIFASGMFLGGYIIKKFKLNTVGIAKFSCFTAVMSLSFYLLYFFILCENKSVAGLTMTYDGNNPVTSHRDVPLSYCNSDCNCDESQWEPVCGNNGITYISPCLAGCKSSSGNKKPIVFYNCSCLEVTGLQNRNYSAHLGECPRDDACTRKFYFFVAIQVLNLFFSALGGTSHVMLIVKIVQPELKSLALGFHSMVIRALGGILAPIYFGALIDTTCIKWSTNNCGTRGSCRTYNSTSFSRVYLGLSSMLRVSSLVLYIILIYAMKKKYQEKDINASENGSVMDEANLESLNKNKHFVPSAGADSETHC
As to the kind of experiment: Inhibition of human liver OATP1B1 expressed in HEK293 Flp-In cells assessed as reduction in E17-betaG uptake at 20 uM by scintillation counting. To be noted: hek293, 20 µM.

For data set [2], the target named is T2, Solute carrier organic anion transporter family member 1B3 (Homo sapiens, UniProt Q9NPD5).
T2 sequence (Q9NPD5 whole entry): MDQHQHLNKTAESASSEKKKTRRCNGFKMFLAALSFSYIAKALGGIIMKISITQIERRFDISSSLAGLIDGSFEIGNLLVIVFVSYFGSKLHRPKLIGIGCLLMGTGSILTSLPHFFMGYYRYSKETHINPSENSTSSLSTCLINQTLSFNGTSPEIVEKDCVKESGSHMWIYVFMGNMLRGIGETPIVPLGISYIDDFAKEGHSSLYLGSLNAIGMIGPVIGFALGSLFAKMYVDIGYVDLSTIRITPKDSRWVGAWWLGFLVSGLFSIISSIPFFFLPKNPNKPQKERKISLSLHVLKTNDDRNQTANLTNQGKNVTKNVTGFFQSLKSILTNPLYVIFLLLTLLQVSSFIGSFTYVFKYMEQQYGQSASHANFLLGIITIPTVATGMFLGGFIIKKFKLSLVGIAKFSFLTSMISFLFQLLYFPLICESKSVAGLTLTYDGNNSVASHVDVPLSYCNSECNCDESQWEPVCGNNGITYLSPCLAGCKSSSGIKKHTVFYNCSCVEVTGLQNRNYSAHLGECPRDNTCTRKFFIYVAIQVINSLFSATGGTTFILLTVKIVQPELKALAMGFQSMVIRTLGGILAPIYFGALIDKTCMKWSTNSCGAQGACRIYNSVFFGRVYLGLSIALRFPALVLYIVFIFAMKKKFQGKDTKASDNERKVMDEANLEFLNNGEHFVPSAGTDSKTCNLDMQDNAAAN
In words: Inhibition of human liver OATP1B3 expressed in HEK293 Flp-In cells assessed as reduction in [3H]E17-betaG uptake at 20 uM incubated for 5 mins by scintillation counting. To be noted: hek293, 5 min.

Data set [3] has as its target T3, Solute carrier organic anion transporter family member 2B1 (Homo sapiens, UniProt O94956).
T3 sequence (O94956 whole entry): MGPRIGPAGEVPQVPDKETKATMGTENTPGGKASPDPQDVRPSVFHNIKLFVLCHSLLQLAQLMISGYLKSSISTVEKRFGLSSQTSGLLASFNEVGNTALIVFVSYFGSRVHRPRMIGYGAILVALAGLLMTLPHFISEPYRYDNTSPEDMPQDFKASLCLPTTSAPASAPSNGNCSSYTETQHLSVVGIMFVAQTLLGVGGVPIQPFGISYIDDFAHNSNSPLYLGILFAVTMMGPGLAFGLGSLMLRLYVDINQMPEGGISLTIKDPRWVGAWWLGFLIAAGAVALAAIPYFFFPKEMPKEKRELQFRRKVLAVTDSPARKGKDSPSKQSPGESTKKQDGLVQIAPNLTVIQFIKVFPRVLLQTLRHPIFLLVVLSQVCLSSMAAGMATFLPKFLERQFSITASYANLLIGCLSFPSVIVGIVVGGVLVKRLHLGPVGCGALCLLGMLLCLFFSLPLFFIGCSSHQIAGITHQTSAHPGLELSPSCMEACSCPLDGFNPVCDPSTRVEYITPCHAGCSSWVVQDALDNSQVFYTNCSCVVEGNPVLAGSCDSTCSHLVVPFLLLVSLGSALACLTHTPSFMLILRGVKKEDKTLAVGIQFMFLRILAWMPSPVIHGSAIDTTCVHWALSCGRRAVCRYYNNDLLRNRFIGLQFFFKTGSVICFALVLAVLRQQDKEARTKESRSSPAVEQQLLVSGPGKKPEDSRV
As to the kind of experiment: Inhibition of human liver OATP2B1 expressed in HEK293 Flp-In cells assessed as reduction in [3H]E3S uptake at 20 uM incubated for 5 mins by scintillation counting. The following applies: hek293, 5 min.

For `C=C(C)[C@@H]1CCC2=CC(=O)C[C@@H](C)[C@]2(C)C1` [NOOTKATONE], the INH in data set [1] is reported as 25.6%; in data set [2] it was -3.2%; in data set [3] it was -72.2%.
In the case of `CO[C@@H]1[C@@H](OC(N)=O)[C@@H](O)[C@H](Oc2ccc3c(O)c(NC(=O)c4ccc(O)c(CC=C(C)C)c4)c(=O)oc3c2C)OC1(C)C` [NOVOBIOCIN], the INH in data set [1] came out at 58.1%; in data set [2], 84.2%; in data set [3] it was 85.6%.
For the compound `COc1ccc2[nH]c([S+]([O-])Cc3ncc(C)c(OC)c3C)nc2c1` (stereo unspecified) [OMEPRAZOLE], the figures for the INH in data set [1], in data set [2] and in data set [3] were 15.9%, 29.5% and 11.3%, respectively.
Taken in the same sequence, the figures for `C[C@@H]1O[C@@H](O[C@H]2C[C@@H](O)[C@]3(CO)[C@H]4[C@H](O)C[C@]5(C)[C@@H](C6=CC(=O)OC6)CC[C@]5(O)[C@@H]4CC[C@]3(O)C2)[C@H](O)[C@H](O)[C@H]1O` [OUABAIN] were 50.5%, 20.5% and -24.1%.
Taken in the same sequence, the figures for `COc1ccnc(C[S+]([O-])c2nc3ccc(OC(F)F)cc3[nH]2)c1OC` (stereo unspecified) [PANTOPRAZOLE] were 15.2%, 23.4% and 17.3%.
The corresponding values for `Fc1ccc([C@@H]2CCNC[C@H]2COc2ccc3c(c2)OCO3)cc1` [PAROXETINE] are 33%, 12.7% and 37.5%.
For `CC1(C)S[C@@H]2[C@H](NC(=O)Cc3ccccc3)C(=O)N2[C@H]1C(=O)O` [PENICILLIN G], the values for the INH in data set [1], in data set [2] and in data set [3] were 8.8%, 40.9% and 7.6%, respectively.
On to `C[C@@H]1NC(=O)[C@H](C[C@@](C)(O)CO)NC(=O)[C@@H]2Cc3c([nH]c4ccccc34)SC[C@H](NC(=O)[C@@H]([C@H](C)O)NC1=O)C(=O)N1C[C@@H](O)C[C@H]1C(=O)N[C@@H](C)C(=O)N2` [PHALLOIDIN] (cyclo(A[dT]C[cisHyp]A[Trp(2-yl)][Leu(4R-OH,5-OH)]); thioether 3-6), for which the INH is on record as 26.1% in data set [1], 36.2% in data set [2] and 24.1% in data set [3].
The corresponding values for `CCOc1ccc(NC(C)=O)cc1` [PHENACETIN] are 34.2%, -0.9% and -0.1%.
Taken in the same sequence, the figures for `[H]/N=C(/N)N/C(=N/[H])NCCc1ccccc1` [PHENFORMIN] were 34.5%, -2.3% and 16.7%.
The corresponding values for `CCC1(c2ccccc2)C(=O)NC(=O)NC1=O` [PHENOBARBITAL] are -3.9%, 7.3% and 11%.
In the case of `Cc1cccc(C)c1NC(=O)CC12CCCN1CCC2` [PILSICAINIDE], the INH in data set [1] is 11.2%; in data set [2] it was -16.8%; in data set [3] it was 10.8%.
The corresponding values for `CC(C)NCC(O)COc1cccc2[nH]ccc12` (stereo unspecified) [PINDOLOL] are -24.7%, 24.5% and -10.8%.
The corresponding values for `CCc1ccc(CCOc2ccc(CC3SC(=O)NC3=O)cc2)nc1` (stereo unspecified) [PIOGLITAZONE] are 21.9%, 5.6% and -9.9%.
The corresponding values for `CN1C(C(=O)Nc2ccccn2)=C(O)c2ccccc2S1(=O)=O` [PIROXICAM] are 16.2%, 23.5% and 68.3%.
For the compound `O=C(O)C[C@H](O)C[C@H](O)/C=C/c1c(C2CC2)nc2ccccc2c1-c1ccc(F)cc1` [PITAVASTATIN], the INH was determined as 97.4% in data set [1], 94.3% in data set [2] and 63.7% in data set [3].
The corresponding values for `COc1cc2nc(N3CCN(C(=O)c4ccco4)CC3)nc(N)c2cc1OC` [PRAZOSIN] are 25.1%, 36.1% and 1%.
The corresponding values for `C[C@]12C=CC(=O)C=C1CC[C@@H]1[C@@H]2[C@@H](O)C[C@@]2(C)[C@H]1CC[C@]2(O)C(=O)CO` [PREDNISOLONE] are 2.3%, 9.6% and 27.6%.
The corresponding values for `CCN(CC)CCNC(=O)c1ccc(N)cc1` [PROCAINAMIDE] are 21.6%, 3.4% and 17.8%.
In the case of `CC(=O)[C@H]1CC[C@H]2[C@@H]3CCC4=CC(=O)CC[C@]4(C)[C@H]3CC[C@]12C` [PROGESTERONE], the INH in data set [1] was 63.9%; in data set [2], 33.4%; in data set [3], -362.6%.
Taken in the same sequence, the figures for `CC(C)NCC(O)COc1cccc2ccccc12` (stereo unspecified) [PROPRANOLOL] were 8.9%, 12.8% and 10.1%.
The corresponding values for `O=c1c(O)c(-c2ccc(O)c(O)c2)oc2cc(O)cc(O)c12` [QUERCETIN] are 77%, 21.6% and 72.6%.
The corresponding values for `COc1ccccc1OCC(O)CN1CCN(CC(=O)Nc2c(C)cccc2C)CC1` (stereo unspecified) [RANOLAZINE] are 4.3%, -14.9% and 41.6%.
As to `CCOc1cc(CC(=O)N[C@@H](CC(C)C)c2ccccc2N2CCCCC2)ccc1C(=O)O` [REPAGLINIDE], the INH in data set [1] is 88.4%; in data set [2] it was 83.2%; in data set [3], 42.2%.
In the case of `CO[C@H]1/C=C/O[C@@]2(C)Oc3c(C)c(O)c4c(O)c(c(/C=N/N5CCN(C)CC5)c(O)c4c3C2=O)NC(=O)/C(C)=C\C=C\[C@H](C)[C@H](O)[C@@H](C)[C@@H](O)[C@@H](C)[C@H](OC(C)=O)[C@@H]1C` [RIFAMPIN], the INH is on record as 88.3% in data set [1], 101.7% in data set [2] and 21.2% in data set [3].
Taken in the same sequence, the figures for `CO[C@H]1/C=C/O[C@@]2(C)Oc3c(C)c(O)c4c(O)c(cc(O)c4c3C2=O)NC(=O)/C(C)=C\C=C\[C@H](C)[C@H](O)[C@@H](C)[C@@H](O)[C@@H](C)[C@H](OC(C)=O)[C@@H]1C` [RIFAMYCIN] were 95.4%, 101.4% and 74.8%.
Taken in the same sequence, the figures for `CN(CCOc1ccc(CC2SC(=O)NC2=O)cc1)c1ccccn1` (stereo unspecified) [ROSIGLITAZONE] were 79.1%, -32.1% and 10%.
